Experimental findings from patent US20230301890A1, “COMPOSITIONS COMPRISING UROLITHINS” (Amazentis SA, priority 2022, published 2023) are described below.

SMILES strings stand for the structures. “Also recorded” adds a separate entry of the source.

The subject of one assay is human skin. The assay is described as follows: RNA-seq transcriptomics and GSEA of forearm skin biopsies (aging study 1). In kind it is in vivo. As to conditions: 8 weeks; for expression of collagen genes (COL1A1, COL5A1, COL5A2, COL14A1, COL3A1) / gene set "collagen fibril organization" (Normalized Enrichment Score): 1% Mitopure product; for expression of collagen genes (COL1A1, COL5A1, COL5A2, COL14A1, COL3A1): change vs baseline normalized over placebo; for gene set "collagen fibril organization" (Normalized Enrichment Score): end of study vs baseline, normalized over placebo/vehicle. The method, then:
In this study, a cosmetic product with a 1% concentration of the active Mitopure or a placebo product were tested on skin aging for 8 weeks. […] Gene set enrichment analysis (GSEA) was performed using the R package ClusterProfiler [Yu et al., 2012]. Briefly, in each comparison, genes were ranked by age beta score value, and the enrichment of a given gene set among up- or-down regulated genes was statistically tested. The minimum and maximum gene set sizes were set to 10 and 500, respectively. Resulting p-values were adjusted using the BH method. Terms with an adjusted p-value<0.05 were considered as statistically significant. To analyze mitochondrial effects biopsies will be taken from a subpanel on volar forearms prior and after 8 weeks of product application and will be analyzed for biomarkers by 3rd parties (See FIGS. 2 and 4). Gene set enrichment analysis (GSEA) will be employed to look for overrepresentation of known mitochondrial pathways and gene functional categories among the regulated genes expressed in human skin. Genes will be ranked by fold change (high to low) and filtered (unadjusted P value of 0.1 before using them) in the GSEA analysis to reduce the risk of false positives. Gene sets defined by the Gene Ontology (GO) Consortium (http://www.geneontology.org/) will be analyzed. We investigated biological pathways impacted by topical UA application performing RNA-seq transcriptomics of forearm skin biopsies from the aging study I. Gene set enrichment analysis (GSEA) was applied to identify significant pathways changed by UA comparing end of the study to baseline, and normalizing results over vehicle. […] We further studied which UA regulated pathways are involved in the natural skin aging process. […] This gene set includes collagen genes encoding for fibrillar type I and III collagen (FIG. 13B), known to decline in skin with chronological aging 13, photo-aging and smoking 14. […] Among them, […]-1, regulating 3D structure and elasticity 15 and AEBP, encoding for a collagen-interacting protein required for optimal tissue repair 16 (FIG. 13B).

Another assay has as its system skin barrier function. Briefly: Skin barrier function (TEWL) by Tewameter, aging studies. In kind it is in vivo, human. The note with it: UA 1% topical, 8 weeks. The method, then:
TEWAMETER® TM 300 (Courage & Khazaka, Cologne, Germany): Transepidermal water loss (TEWL) is a non-invasive method to measure the barrier function of the skin and is regarded as a sensitive parameter to quantify skin barrier damage. Briefly, the insensible water evaporation from the skin is measured by placing cylindric open chamber with two hygrosensors at defined distance to the skin. The probe is held in place for each measurement for 30 seconds. This is to assure that a stable value has been established. The first part of the measurements belongs to this equilibration phase. The values of the last 10 seconds (=10 values) are averaged as the actual measurement value.
TEWAMETER® TM 300 (Courage & Khazaka, Cologne, Germany): Transepidermal water loss (TEWL) is a non-invasive method to measure the barrier function of the skin and is regarded as a sensitive parameter to quantify skin barrier damage. Briefly, the insensible water evaporation from the skin is measured by placing cylindric open chamber with two hygrosensors at defined distance to the skin.

In a further assay the test system is facial wrinkles. The assay is described as follows: Aging study 1: wrinkle analysis of Colorface images. The class given is in vivo, human. The source says:
The effect of the test product on the skin barrier function will be assessed by transepidermal […] (TEWL) at the beginning as well as after 2 weeks and after 8 weeks of product application. Furthermore, effects on the facial skin on skin hydration (by Corneometer), skin elasticity and firmness (by Cutometer) and skin color (by Spectrophotometer) will be investigated. Additionally, skin layer thickness and undulation index of the dermal epidermal junction (DEJ) will be measured by line-field confocal optical coherence tomography (LC-OCT). Images for wrinkle analysis and for documentation purpose will be taken with Colorface. A questionnaire regarding product traits will be filled in after 2 weeks of product application and at the end of the study.
The following efficacy assessment(s) will be performed: • Biomarker analysis of 3 mm punch-biopsies on 30 subjects (15 subjects per group) by Sponsor/3rd party • Transepidermal Water Loss (TEWL) by Tewameter [g/(m2h)j • Skin Hydration—Skin Capacitance by Corneometer [a.u.j] (see FIG. 8) • Skin Color by Spectrophotometer • Skin Firmness—R0 (Uf) by Cutometer [mm] • Skin Elasticity—R7 (Ur/Uf) by Cutometer • Image analysis by line-field confocal optical coherence tomography (LC-OCT) by Damae**: • (a) Skin layer thickness (epidermis and stratum corneum) • (b) Undulation index of the dermal epidermal junction (DEJ) • Image analysis of Colorface Images by Newtone • (a) analysis of wrinkles and fine lines (see FIG. 7) • (b) creation of average face • Questionnaire of product traits • upon decision of the sponsor, depending on the results of the other instrumental measurements analysis will be done on either one group at three timepoints, or on two groups at two timepoints
COLORFACE® PHOTOBOX (Newtone Technologies, Lyon, France): Colorface® is used for standardized, computer-controlled facial photography. It is equipped with a 24 Mpixel Nikon camera and a various range of LED-flashes at fixed positions in the booth. Illumination of the face is done with • ? standard flashes • ? parallel-polarized light • ? cross-polarized light • □ UV flashes to obtain fluorescent images. The acquisition software for Colorface is used as image database, but also defines the settings for the respective study. All settings are fixed so that unwanted changes of image capture parameters can be avoided. The instrument enables facial photography of high quality and same illumination at different assessment times. Images of the following position of the face will be taken: • ? front • ? right • ? left • 1 single image per setting, face position and assessment time • Data will be stored in the Newtone Imaging access cloud • Images will be provided to the sponsor in an anonymized way (e.g., black bar covering eyes) if possible.
Crow's Feet Analysis: • Parameter: Visible length, Visible surface, Visible depth and Visible volume • Illumination: STD60 • View: profile: right and left • Area: Crow's Feet

As for `O=c1oc2cc(O)ccc2c2ccc(O)cc12` [Urolithin A], the “expression of collagen genes (COL1A1, COL5A1, COL5A2, COL14A1, COL3A1)” value with human skin is “significant up-regulation”; in the assay with human skin (listed as Mitopure), “increased expression; also recorded: all upregulated; also recorded: improved expression”. Further, the “gene set "collagen fibril organization" (Normalized Enrichment Score)” value is recorded as “significantly upregulated; also recorded: positive” in the assay with human skin and “most significantly activated pathway” with human skin (listed as UA). In addition, the “genes involved in skin homeostasis (EMILIN-1, AEBP)” value in the assay on human skin (UA 1% topical) is given as “rescued age-associated decline”. The “gene sets related to chemokine response” value in the assay on human skin (UA 1% topical, normalized over vehicle) is given as “reducing”. The skin barrier function entry with skin barrier function is “no significant impact”. For the same molecule, the wrinkle depth entry in the assay with facial wrinkles (0.5% Urolithin A skin cream, vs placebo) is listed as “no impact”; in the assay on facial wrinkles (0.5% Urolithin A skin cream, vs placebo, listed as UA) it was “did not showed any significant effect”; with facial wrinkles (0.5% Urolithin A skin cream, vs placebo, listed as urolithin A), “Lack of anti-wrinkle effect”; in the assay on facial wrinkles (1% Urolithin A skin cream, 8 weeks twice daily, vs placebo treated side), “significant impact on reducing wrinkle depth”; in the assay on facial wrinkles (1% Urolithin A skin cream, 8 weeks twice daily, vs placebo treated side, listed as UA), “significant anti-wrinkle effects; also recorded: significant reduction”; in the assay with facial wrinkles (1% Urolithin A skin cream, 8 weeks twice daily, vs placebo treated side, listed as urolithin A), “Reduction; also recorded: Anti-wrinkle effect”. The reduction in wrinkles in the assay on facial wrinkles (cream containing Urolithin A at 1% alone) is given as 4-6%.
